Numbered stars: 1 amine (or outer) side, 2 acyl side, 3 side chain; on linkers, the order of the positions; unused ones are H or OH. Square brackets hold non-standard residues; d marks the D form. Peptide text beside a SMILES is read from it. γGlu = O=C(O)[C@H](CCC(=O)[*:2])N[*:1]; Hyp = O=C(O)[C@@H]1C[C@@H](O)CN1; Nspe = C[C@H](NCC(=O)O)c1ccccc1; Chg = N[C@H](C(=O)O)C1CCCCC1; Nlys = NCCCCNCC(=O)O

Holding throughout (assay type): functional
In assay [1] the test system is LNCaP. Briefly: Selectivity ratio of LC50 for human PC3 cells to LC50 for human LNCaP cells.
For another assay, the system named is PC-3. Briefly: Cytotoxicity against human PC3 cells assessed as induction of cell death after 48 hrs by MTS assay. To be noted: PC-3, 48 h, read-out: LC50 (the source's name). (Tetrazolium dyes change colour on reduction, which living cells bring about.)
For assay [2], the system named is LNCaP. Briefly: Cytotoxicity against human LNCAP cells assessed as induction of cell death after 48 hrs by MTS assay. As to conditions: read-out: LC50 (the source's name).

Take `C[C@@H](c1ccccc1)N(CC(N)=O)C(=O)CN(C(=O)CN(CCCCN)C(=O)CN(C(=O)CN(C(=O)CN(CCCCN)C(=O)CN(C(=O)CN(C(=O)CN(CCCCN)C(=O)CN(C(=O)CN(C(=O)CN(CCCCN)C(=O)CC[C@H](N)C(=O)O)[C@@H](C)c1ccccc1)[C@@H](C)c1ccccc1)[C@@H](C)c1ccccc1)[C@@H](C)c1ccccc1)[C@@H](C)c1ccccc1)[C@@H](C)c1ccccc1)[C@@H](C)c1ccccc1`: in the assay with LNCaP [1], the RatioLC50 is recorded as 1.3. The figures for the CC50 in the assay with PC-3 and with LNCaP [2] were 12 µM and 9.5 µM, respectively.

For `CC(=O)N[C@@H](CCC(=O)N[C@@H](CCC(=O)N[C@@H](Cc1cnc[nH]1)C(=O)N[C@@H](CO)C(=O)N[C@@H](CO)C(=O)N[C@@H](CCCCN)C(=O)N[C@@H](CC(C)C)C(=O)N[C@@H](CCC(N)=O)C(=O)N(CCCCN)CC(=O)N(CC(=O)N(CC(=O)N(CCCCN)CC(=O)N(CC(=O)N(CC(=O)N(CCCCN)CC(=O)N(CC(=O)N(CC(=O)N(CCCCN)CC(=O)N(CC(=O)N(CC(N)=O)[C@@H](C)c1ccccc1)[C@@H](C)c1ccccc1)[C@@H](C)c1ccccc1)[C@@H](C)c1ccccc1)[C@@H](C)c1ccccc1)[C@@H](C)c1ccccc1)[C@@H](C)c1ccccc1)[C@@H](C)c1ccccc1)C(=O)O)C(=O)O` (Ac-[γGlu][γGlu]HSSKLQ[Nlys][Nspe][Nspe][Nlys][Nspe][Nspe][Nlys][Nspe][Nspe][Nlys][Nspe][Nspe]-NH2), the RatioLC50 in the assay with LNCaP [1] was determined as 1.6. Besides, the figures for the CC50 in the assay on PC-3 and with LNCaP [2] were 28 µM and 18 µM, respectively.

Take `CC(=O)N[C@@H](CCC(=O)N[C@@H](CCC(=O)N[C@@H](CCC(=O)N[C@@H](Cc1cnc[nH]1)C(=O)N[C@@H](CO)C(=O)N[C@@H](CO)C(=O)N[C@@H](CCCCN)C(=O)N[C@@H](CC(C)C)C(=O)N[C@@H](CCC(N)=O)C(=O)N(CCCCN)CC(=O)N(CC(=O)N(CC(=O)N(CCCCN)CC(=O)N(CC(=O)N(CC(=O)N(CCCCN)CC(=O)N(CC(=O)N(CC(=O)N(CCCCN)CC(=O)N(CC(=O)N(CC(N)=O)[C@@H](C)c1ccccc1)[C@@H](C)c1ccccc1)[C@@H](C)c1ccccc1)[C@@H](C)c1ccccc1)[C@@H](C)c1ccccc1)[C@@H](C)c1ccccc1)[C@@H](C)c1ccccc1)[C@@H](C)c1ccccc1)C(=O)O)C(=O)O)C(=O)O` (Ac-[γGlu][γGlu][γGlu]HSSKLQ[Nlys][Nspe][Nspe][Nlys][Nspe][Nspe][Nlys][Nspe][Nspe][Nlys][Nspe][Nspe]-NH2): the RatioLC50 in the assay on LNCaP [1] turned out to be 1.2. The CC50 with PC-3 amounted to 37 µM; in the assay with LNCaP [2], 31 µM.

With `CC(=O)N[C@@H](CCC(=O)N[C@@H](CCC(=O)N[C@@H](CCC(=O)N[C@@H](CCC(=O)N[C@@H](Cc1cnc[nH]1)C(=O)N[C@@H](CO)C(=O)N[C@@H](CO)C(=O)N[C@@H](CCCCN)C(=O)N[C@@H](CC(C)C)C(=O)N[C@@H](CCC(N)=O)C(=O)N(CCCCN)CC(=O)N(CC(=O)N(CC(=O)N(CCCCN)CC(=O)N(CC(=O)N(CC(=O)N(CCCCN)CC(=O)N(CC(=O)N(CC(=O)N(CCCCN)CC(=O)N(CC(=O)N(CC(N)=O)[C@@H](C)c1ccccc1)[C@@H](C)c1ccccc1)[C@@H](C)c1ccccc1)[C@@H](C)c1ccccc1)[C@@H](C)c1ccccc1)[C@@H](C)c1ccccc1)[C@@H](C)c1ccccc1)[C@@H](C)c1ccccc1)C(=O)O)C(=O)O)C(=O)O)C(=O)O` (Ac-[γGlu][γGlu][γGlu][γGlu]HSSKLQ[Nlys][Nspe][Nspe][Nlys][Nspe][Nspe][Nlys][Nspe][Nspe][Nlys][Nspe][Nspe]-NH2), the RatioLC50 in the assay with LNCaP [1] is 1.3. Further, the CC50 in the assay with PC-3 worked out at 47 µM; in the assay with LNCaP [2], 35 µM.

Regarding `CC(C)C[C@H](NC(=O)[C@H](CCCCN)NC(=O)[C@H](CO)NC(=O)[C@H](CO)NC(=O)[C@@H](N)Cc1cnc[nH]1)C(=O)N[C@@H](CCC(N)=O)C(=O)N(CCCCN)CC(=O)N(CC(=O)N(CC(=O)N(CCCCN)CC(=O)N(CC(=O)N(CC(=O)N(CCCCN)CC(=O)N(CC(=O)N(CC(=O)N(CCCCN)CC(=O)N(CC(=O)N(CC(N)=O)[C@@H](C)c1ccccc1)[C@@H](C)c1ccccc1)[C@@H](C)c1ccccc1)[C@@H](C)c1ccccc1)[C@@H](C)c1ccccc1)[C@@H](C)c1ccccc1)[C@@H](C)c1ccccc1)[C@@H](C)c1ccccc1` (H-HSSKLQ[Nlys][Nspe][Nspe][Nlys][Nspe][Nspe][Nlys][Nspe][Nspe][Nlys][Nspe][Nspe]-NH2), the RatioLC50 in the assay on LNCaP [1] amounted to 2.1. The CC50 came out at 19.6 µM in the assay with PC-3 and 9.2 µM in the assay on LNCaP [2].

As to `C[C@@H](c1ccccc1)N(CC(N)=O)C(=O)CN(C(=O)CN(CCCCN)C(=O)CN(C(=O)CN(C(=O)CN(CCCCN)C(=O)CN(C(=O)CN(C(=O)CN(CCCCN)C(=O)CN(C(=O)CN(C(=O)CN(CCCCN)C(=O)[C@@H]1CCCN1C(=O)[C@H](CO)NC(=O)[C@H](CO)NC(=O)[C@H](CCC(N)=O)NC(=O)[C@@H](NC(=O)[C@H](CO)NC(=O)[C@H](CO)NC(=O)[C@@H]1C[C@@H](O)CN1)C1CCCCC1)[C@@H](C)c1ccccc1)[C@@H](C)c1ccccc1)[C@@H](C)c1ccccc1)[C@@H](C)c1ccccc1)[C@@H](C)c1ccccc1)[C@@H](C)c1ccccc1)[C@@H](C)c1ccccc1` (H-[Hyp]SS[Chg]QSSP[Nlys][Nspe][Nspe][Nlys][Nspe][Nspe][Nlys][Nspe][Nspe][Nlys][Nspe][Nspe]-NH2), the RatioLC50 in the assay with LNCaP [1] is 2.1. Moreover, the values for the CC50 in the assay on PC-3 and in the assay with LNCaP [2] were 35 µM and 17 µM, respectively.

In the case of `CC(C)C[C@H](NC(=O)[C@H](CCCCN)NC(=O)[C@H](CO)NC(=O)[C@H](CO)NC(=O)[C@H](Cc1cnc[nH]1)NC(=O)CNCCCCN)C(=O)N[C@@H](CCC(N)=O)C(=O)N(CC(=O)N(CC(=O)N(CCCCN)CC(=O)N(CC(=O)N(CC(=O)N(CCCCN)CC(=O)N(CC(=O)N(CC(=O)N(CCCCN)CC(=O)N(CC(=O)N(CC(N)=O)[C@@H](C)c1ccccc1)[C@@H](C)c1ccccc1)[C@@H](C)c1ccccc1)[C@@H](C)c1ccccc1)[C@@H](C)c1ccccc1)[C@@H](C)c1ccccc1)[C@@H](C)c1ccccc1)[C@@H](C)c1ccccc1` (H-[Nlys]HSSKLQ[Nspe][Nspe][Nlys][Nspe][Nspe][Nlys][Nspe][Nspe][Nlys][Nspe][Nspe]-NH2), the RatioLC50 with LNCaP [1] was 3. For the same compound, the CC50 in the assay with PC-3 came out at 16.9 µM; with LNCaP [2], 5.7 µM.

Turning to `CC(C)C[C@H](NC(=O)[C@H](CCCCN)NC(=O)[C@H](CO)NC(=O)[C@H](CO)NC(=O)[C@H](Cc1cnc[nH]1)NC(=O)CN(CCCCN)C(=O)CN(C(=O)CN(C(=O)CNCCCCN)[C@@H](C)c1ccccc1)[C@@H](C)c1ccccc1)C(=O)N[C@@H](CCC(N)=O)C(=O)N(CC(=O)N(CC(=O)N(CCCCN)CC(=O)N(CC(=O)N(CC(=O)N(CCCCN)CC(=O)N(CC(=O)N(CC(=O)N(CCCCN)CC(N)=O)[C@@H](C)c1ccccc1)[C@@H](C)c1ccccc1)[C@@H](C)c1ccccc1)[C@@H](C)c1ccccc1)[C@@H](C)c1ccccc1)[C@@H](C)c1ccccc1` (H-[Nlys][Nspe][Nspe][Nlys]HSSKLQ[Nspe][Nspe][Nlys][Nspe][Nspe][Nlys][Nspe][Nspe][Nlys]-NH2), the RatioLC50 in the assay with LNCaP [1] is recorded as 3.2. The results for the CC50 in the assay on PC-3 and in the assay on LNCaP [2] were 19.1 µM and 5.9 µM, respectively.

As for `C[C@@H](c1ccccc1)N(CC(N)=O)C(=O)CN(C(=O)CN(CCCCN)C(=O)CN(C(=O)CN(C(=O)CN(CCCCN)C(=O)CN(C(=O)CN(C(=O)CN(CCCCN)C(=O)CN(C(=O)CN(C(=O)CNCCCCN)[C@@H](C)c1ccccc1)[C@@H](C)c1ccccc1)[C@@H](C)c1ccccc1)[C@@H](C)c1ccccc1)[C@@H](C)c1ccccc1)[C@@H](C)c1ccccc1)[C@@H](C)c1ccccc1` (H-[Nlys][Nspe][Nspe][Nlys][Nspe][Nspe][Nlys][Nspe][Nspe][Nlys][Nspe][Nspe]-NH2), the RatioLC50 with LNCaP [1] stood at 1.7. Further, the CC50 in the assay on PC-3 amounted to 8.5 µM; with LNCaP [2] it was 5 µM.

Consider `CC(C)C[C@H](NC(=O)[C@H](CCCCN)NC(=O)[C@H](CO)NC(=O)[C@H](CO)NC(=O)[C@H](Cc1cnc[nH]1)NC(=O)CC[C@H](NC(=O)CC[C@H](NC(=O)CC[C@H](NC(=O)CC[C@H](N)C(=O)O)C(=O)O)C(=O)O)C(=O)O)C(=O)N[C@@H](CCC(N)=O)C(=O)N(CCCCN)CC(=O)N(CC(=O)N(CC(=O)N(CCCCN)CC(=O)N(CC(=O)N(CC(=O)N(CCCCN)CC(=O)N(CC(=O)N(CC(=O)N(CCCCN)CC(=O)N(CC(=O)N(CC(N)=O)[C@@H](C)c1ccccc1)[C@@H](C)c1ccccc1)[C@@H](C)c1ccccc1)[C@@H](C)c1ccccc1)[C@@H](C)c1ccccc1)[C@@H](C)c1ccccc1)[C@@H](C)c1ccccc1)[C@@H](C)c1ccccc1` ({γGlu-γGlu-γGlu-γGlu}-HSSKLQ[Nlys][Nspe][Nspe][Nlys][Nspe][Nspe][Nlys][Nspe][Nspe][Nlys][Nspe][Nspe]-NH2), for which, in the assay with LNCaP [1], the RatioLC50 is 2.1. Besides, the CC50 was found to be 36 µM in the assay on PC-3 and 17 µM in the assay on LNCaP [2].

With `CC(C)C[C@H](NC(=O)[C@H](CCCCN)NC(=O)[C@H](CO)NC(=O)[C@H](CO)NC(=O)[C@H](Cc1cnc[nH]1)NC(=O)CC[C@H](NC(=O)CC[C@H](NC(=O)CC[C@H](N)C(=O)O)C(=O)O)C(=O)O)C(=O)N[C@@H](CCC(N)=O)C(=O)N(CCCCN)CC(=O)N(CC(=O)N(CC(=O)N(CCCCN)CC(=O)N(CC(=O)N(CC(=O)N(CCCCN)CC(=O)N(CC(=O)N(CC(=O)N(CCCCN)CC(=O)N(CC(=O)N(CC(N)=O)[C@@H](C)c1ccccc1)[C@@H](C)c1ccccc1)[C@@H](C)c1ccccc1)[C@@H](C)c1ccccc1)[C@@H](C)c1ccccc1)[C@@H](C)c1ccccc1)[C@@H](C)c1ccccc1)[C@@H](C)c1ccccc1` ({γGlu-γGlu-γGlu}-HSSKLQ[Nlys][Nspe][Nspe][Nlys][Nspe][Nspe][Nlys][Nspe][Nspe][Nlys][Nspe][Nspe]-NH2), the RatioLC50 in the assay with LNCaP [1] worked out at 2. Moreover, the CC50 is 34 µM in the assay on PC-3 and 17 µM in the assay on LNCaP [2].

With `C[C@@H](c1ccccc1)N(CC(N)=O)C(=O)CN(C(=O)CN(CCCCN)C(=O)CN(C(=O)CN(C(=O)CN(CCCCN)C(=O)CN(C(=O)CN(C(=O)CN(CCCCN)C(=O)CN(C(=O)CN(C(=O)CN(CCCCN)C(=O)CC[C@H](NC(=O)CC[C@H](NC(=O)CC[C@H](N)C(=O)O)C(=O)O)C(=O)O)[C@@H](C)c1ccccc1)[C@@H](C)c1ccccc1)[C@@H](C)c1ccccc1)[C@@H](C)c1ccccc1)[C@@H](C)c1ccccc1)[C@@H](C)c1ccccc1)[C@@H](C)c1ccccc1` ({γGlu-γGlu-γGlu}-[Nlys][Nspe][Nspe][Nlys][Nspe][Nspe][Nlys][Nspe][Nspe][Nlys][Nspe][Nspe]-NH2), the RatioLC50 in the assay with LNCaP [1] is 1.1. Moreover, the CC50 in the assay on PC-3 came out at 17 µM; with LNCaP [2], 15 µM.

These data come from ChEMBL document CHEMBL3596184, “Prostate tumor specific peptide-peptoid hybrid prodrugs” (2015).
